Assay results: patent publication US11629175B2, “Method for preparing PHFS-like Tau aggregates” (ECOLE POLYTECHNIQUE FEDERALE DE LAUSANNE (EPFL), priority 2018, dated 2023)

Tests used:
monomeric Tau 4R2N [1] = biological target: T1, monomeric Tau 4R2N (Homo sapiens, UniProt P10636); assay: Seeding of monomeric Tau with R2 or R2-derived peptide seeds, EM; type: biochemical; settings: 37° C.; for seeding of monomeric Tau / formation of rPHFs (EM): 10 μM sonicated peptide fibrils + 10 μM monomeric Tau
T1 construct: made in house; host or cells: E. coli (pET-28a(+))
Protocol: The seeding of Tau 4R2N (SEQ ID No: 5) by R2 was performed in presence of 10 μM of sonicated peptide fibrils, added to 10 μM of the monomeric soluble Tau, at 37° C. under stagnant conditions. It was observed that R2 is capable of seeding the aggregation of full length Tau (FIG. 3).
Having determined which of the R2-derived peptides are capable of aggregation and characterized their aggregation kinetics and fibril morphology, it was next investigated whether some of the R2-derived peptides could induce the seeding of Tau and K18, and whether it would lead to the formation of rPHFs fibrils. In order to reach this goal, fibrils of the peptides that were able to aggregate (R2 dC5, dC9, dC10, dC15 K6N and dPHF6*) were sonicated and added to monomeric Tau or K18 at molar ratios of 10 μM: 10 μM (i.e. under the same experimental conditions as those leading to R2-seeding of Tau and K18).
Unless stated otherwise, 100 μM R2 or R2-derived peptide were dissolved in 10 mM phosphate, 50 mM NaF, 0.5 mM DTT and pH-adjusted to 7.4. The solution was then vortexed and the supernatant was incubated in presence of heparin sodium salt at molar ratio 1:4 (heparin:peptide) (Applichem GmbH) at 37° C., either with or without constant orbital agitation (1000 rpm, Peqlab, Thriller).
The obtained seeds were added at a final concentration of 10 μM to 10 μM of monomeric Tau or K18 in 10 mM phosphate, 50 mM NaF, 0.5 mM DTT and incubated 37° C.

tau biosensor cells = assay: Tau biosensor cell assay (FRET flow cytometry, confocal microscopy), seeding capacity; type: cell-based; settings: for Integrated FRET Density (IFD): FRET flow cytometry, 2 experimental repeats, 3 technical replicates
Excerpt: Based on Furman and Diamond, 2017. FRET and Flow Cytometry Assays to Measure Proteopathic Seeding Activity in Biological Samples. Caroline Smet-Nocca (ed.), Tau Protein: Methods and Protocols, Methods in Molecular Biology, vol. 1523, DOI 10.1007/978-1-4939-6598-4_23, © Springer Science+Business Media New York 2017).
Methods: FRET flow cytometry Biosensor cell assay (Furman and Diamond, 2017) was used to assess the seeding capacity of fibrillar R2 compared to R2 monomer, and fibrillar rPHF compared to 4R2N monomer
Methods: cells were transduced with transduction buffer, R2 monomer, rPHFs or R2 fibrils following protocol by Furman and Diamond (2017).

[2] = tested on: hippocampal rat primary neurons; assay: Immunocytochemistry (ThS) in transfected rat primary hippocampal neurons; type: cell-based; settings: 1 μM, 3 days
Protocol: Next, the findings of the present invention were validated using a cellular model, the hippocampal rat primary neurons. Primary neurons were transfected with full length Tau and K18 ΔK280, and cells were treated with R2, R2-seeded Tau or R2-seeded K18 at a concentration of 1 μM, […]. After 3 days, the coverslips were processed for ICC. […] Although the intracellular ThS signal is relatively high, it is difficult to distinguish between uptake of exogenous material and seeding of endogenous and/or overexpressed Tau/K18 ΔK280, especially since the concentration used here is relatively high (1 μM).
Hippocampi from PO WT rat (OFA SD, Charles River) were dissociated and triturated in papain-containing medium. After centrifugation at 400 g for 2 min, neurons were plated in MEM supplemented with 10% fetal calf serum (FCS) on Cultrex™ poly-L-lysine (Trevigen)-coated coverslips at 1.5×10^5 cells/ml (6 well-plates, 3 ml per well). After 4 h, medium was replaced with Neurobasal/B27 medium. Viral infections were performed two weeks, and transfection one week after plating.
One week old hippocampal rat primary neurons seeded on coverslips coated with Cultrex poly-L-lysine were transfected with Tau or K18 ΔK280 ([…]) using lipofectamine 2000 reagent (Invitrogen). 24 h after transfection, cells were treated with 1 μM monomeric R2, R2 seeds, R2-seeded Tau, R2-seeded K18 and further incubated for 1 or 3 days. Cells were then fixed in 100% methanol at −20° C. for 10 min and rinsed three times in PBS. After blocking with 3% BSA in PBST for 30 min at RT, cells were incubated with ThS (Sigma) at 0.1 mg/ml in PBS for 10 min and rinsed 5 times with 80% Ethanol and once with PBS. Coverslips were then incubated with primary antibodies for 2 h at RT (see Table M.1). The cells were rinsed five times with PBST and subsequently incubated with the secondary antibodies at a dilution of 1/800 in PBST and DAPI at 2 μg/ml (Life technologies). The cells were washed five times in PBST, once in PBS and rinsed in MilliQ water before mounting in PVA medium with DABCO (Sigma). The cells were then examined with confocal laser-scanning microscope (LSM 700, Zeiss) and analyzed using Zen software.

monomeric Tau 4R2N [3] = biological target: T1, monomeric Tau 4R2N; assay: R2-seeded Tau aggregation with commercially available inhibitors, ThS fluorescence and EM; type: biochemical; settings: Tau 4R2N 5 μM + R2 seeds 5 μM; inhibitor 1, 10, 100 μM; end timepoint ThS
Protocol: The aggregation kinetic is followed using ThS fluorescence. a. The list and structure of the 5 inhibitors used in this proof of concept assay. b. As an example, the full kinetic of Tau incubated in presence of R2 seed with LMTX at 1 μM (orange), 10 μM (grey) or 100 μM (yellow) or in absence of inhibitor (blue). c. End timepoint ThS value of Tau incubated in presence of R2 with the five selected inhibitors at 1 μM (orange), 10 μM (grey) or 100 μM (yellow) or in absence of inhibitor (blue). The inhibition is dose-dependent, the inhibitors show various inhibition potencies (e.g. low for BSc3094, high for LMTX). […] Corresponding EM micrographs confirm the absence of significant fibrilization in the presence of most inhibitors. The presence of oligomeric species corroborate the hypothesis that Tau is locked in OFF-pathway conformations. The scale bars are 500 [nm].
To do so, R2 seeds were incubated with monomeric Tau protein in presence or absence of a set commercially available know Tau aggregation inhibitors (ATPZ, LMTX, Pyrochatecol violet, BSc3094 and myricetin, FIG. 18 a) at three different conventions (1 μM, 10 μM and 100 μM). The aggregation kinetic was followed using ThS fluorescence. As an example, the full kinetic of Tau incubated in presence of R2 seed, with LMTX at the three different concentration is presented in FIG. 18 b. […]

[4] = neurons transfected with K18 ΔK280
[5] = neurons transfected with WT Tau 4R2N

T1 sequence (P10636 1-441 isoform P10636-8): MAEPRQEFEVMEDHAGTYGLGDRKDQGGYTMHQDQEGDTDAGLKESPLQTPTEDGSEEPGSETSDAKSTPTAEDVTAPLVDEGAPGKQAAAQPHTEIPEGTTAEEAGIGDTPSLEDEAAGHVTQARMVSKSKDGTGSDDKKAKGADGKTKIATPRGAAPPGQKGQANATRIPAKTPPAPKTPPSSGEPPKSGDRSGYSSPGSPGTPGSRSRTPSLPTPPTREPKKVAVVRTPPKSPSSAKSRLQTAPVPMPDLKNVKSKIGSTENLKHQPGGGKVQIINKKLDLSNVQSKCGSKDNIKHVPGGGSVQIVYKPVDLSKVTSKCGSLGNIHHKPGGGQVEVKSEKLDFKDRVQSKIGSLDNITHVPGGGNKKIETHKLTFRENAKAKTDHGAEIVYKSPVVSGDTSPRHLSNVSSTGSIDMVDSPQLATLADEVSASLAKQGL

R2: Tau repeat peptide R2, SEQ ID No 1
incubation time until PHFs-like fibrils observed by EM (monomeric Tau 4R2N [1]; 10 μM R2 seeds + 10 μM Tau 4R2N, stagnant): less than 4 h
seeding of monomeric Tau / formation of rPHFs (EM) (monomeric Tau 4R2N [1]): allowed the formation of rPHFs

rPHF fibrils: recombinant PHFs: Tau fibrils formed by seeding monomeric Tau with R2 seeds
Integrated FRET Density (IFD) (tau biosensor cells): increase in the IFD
aggregates in transduced biosensor cells (confocal microscopy) (tau biosensor cells; transduction per Furman and Diamond): bright aggregated puncta
ThS signal in transfected neurons [2, 4]: strong ThS signal
localisation of ThS signal [2, 4]: intracellular
ThS signal in transfected neurons [2, 5]: strong ThS signal
localisation of ThS signal [2, 5]: intracellular

4R2N monomer: longest adult human Tau isoform, 441 amino acid, SEQ ID No 5, monomeric
Integrated FRET Density (IFD) (tau biosensor cells): 0

CN(C)c1ccc2c(c1)Sc1cc(N(C)C)ccc1N2.CS(=O)(=O)O.CS(=O)(=O)O [LMTX]
inhibition potency (monomeric Tau 4R2N [3]): high

R2 extended and mutated to the SGGG motif: R2 PGGG-extended with P301S mutation (SGGG), SEQ ID No 4 (VQIINKKLDLSNVQSKCGSKDNIKHVSGGG; listed as Homo sapiens)
seeding of monomeric Tau / formation of rPHFs (EM) (monomeric Tau 4R2N [1]): allowed the formation of rPHFs

O=C(NNc1nc(-c2ccc([N+](=O)[O-])cc2)cs1)c1ccc2nc[nH]c2c1 [BSc3094]
inhibition potency (monomeric Tau 4R2N [3]): low

R2-seeded K18: K18 (SEQ ID No 6) fibrils formed by seeding with R2 seeds
ThS signal in transfected neurons [2, 4]: strong ThS signal
localisation of ThS signal [2, 4]: intracellular
ThS signal in transfected neurons [2, 5]: strong ThS signal
localisation of ThS signal [2, 5]: intracellular
